Experimental data: ChEMBL document CHEMBL5154734, “Novel potent benzimidazole-based microsomal prostaglandin E2 synthase-1 (mPGES-1) inhibitors derived from BRP-201 that also inhibit leukotriene C4 synthase” (Eur J Med Chem, 2022)
Activity calls are given as the source filed them. The rule behind the calls is not given here.

Key:
Prostaglandin E synthase = biological target: T1, Prostaglandin E synthase (Homo sapiens, UniProt O14684); experiment: Inhibition of mPGES-1 activity in human A549 microsomal preparation using PGH2 as substrate preincubated for 15 mins followed by substrate addition for 1 min by RP-HPLC analysis; format: microsomes, Microsome
T1 sequence (O14684 whole entry): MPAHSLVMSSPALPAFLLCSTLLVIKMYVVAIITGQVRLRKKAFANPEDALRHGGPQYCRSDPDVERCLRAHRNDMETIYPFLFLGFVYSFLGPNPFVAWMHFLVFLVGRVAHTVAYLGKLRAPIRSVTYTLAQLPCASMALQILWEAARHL

[1] = biological target: T2, Prostaglandin E synthase (Homo sapiens) (UniProt O14684); experiment: Inhibition of mPGES-1 activity in IL-1beta human A549 microsomal preparation at 10 uM using PGH2 as substrate preincubated for 15 mins followed by substrate addition for 1 min by RP-HPLC analysis; format: microsomes; settings: Microsome, time 16.0 min
T2 sequence (whole entry): T1 sequence (O14684 whole entry)

Leukotriene C4 synthase [2] = biological target: T3, Leukotriene C4 synthase (Homo sapiens, UniProt Q16873); experiment: Inhibition of recombinant LTC4S (unknown origin) expressed in COS cells; format: cell-based
T3 sequence (Q16873 whole entry): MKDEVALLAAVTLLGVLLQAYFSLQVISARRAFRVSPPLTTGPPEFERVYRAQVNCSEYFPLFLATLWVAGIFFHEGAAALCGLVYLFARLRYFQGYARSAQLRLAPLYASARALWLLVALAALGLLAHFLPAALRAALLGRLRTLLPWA

[3] = biological target: T4, Polyunsaturated fatty acid 5-lipoxygenase (Homo sapiens, UniProt P09917); experiment: Inhibition of human recombinant 5-LOX expressed in Escherichia coli BL21 assessed as inhibition of […] 5-LO product LTB4 formation preincubated for 15 mins followed by arachidonic acid addition and measured after 10 mins by RP-HPLC analysis
T4 sequence (P09917 whole entry): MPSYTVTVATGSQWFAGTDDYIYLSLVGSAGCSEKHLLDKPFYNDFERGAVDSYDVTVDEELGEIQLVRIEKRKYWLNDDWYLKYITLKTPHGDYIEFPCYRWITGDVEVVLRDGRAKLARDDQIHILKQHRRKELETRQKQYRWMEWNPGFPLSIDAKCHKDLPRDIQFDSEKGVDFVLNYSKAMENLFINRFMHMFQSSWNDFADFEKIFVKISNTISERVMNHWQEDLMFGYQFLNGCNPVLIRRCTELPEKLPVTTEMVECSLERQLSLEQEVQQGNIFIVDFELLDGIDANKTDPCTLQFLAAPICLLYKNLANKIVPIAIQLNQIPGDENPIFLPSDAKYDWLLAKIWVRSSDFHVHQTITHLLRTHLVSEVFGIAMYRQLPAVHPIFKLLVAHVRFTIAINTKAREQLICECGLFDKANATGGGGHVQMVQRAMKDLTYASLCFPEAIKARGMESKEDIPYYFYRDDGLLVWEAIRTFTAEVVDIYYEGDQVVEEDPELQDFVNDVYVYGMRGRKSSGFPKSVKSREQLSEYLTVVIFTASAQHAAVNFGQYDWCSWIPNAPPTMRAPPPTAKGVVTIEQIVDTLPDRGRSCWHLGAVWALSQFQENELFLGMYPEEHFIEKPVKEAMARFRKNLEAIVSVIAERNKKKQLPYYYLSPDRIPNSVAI

[4] = biological target: T5, Polyunsaturated fatty acid 5-lipoxygenase (Homo sapiens) (UniProt P09917); experiment: Inhibition of 5-LOX in human neutrophils assessed as reduction in FLAP-dependent 5-LO product LTB4 formation at upto 10 uM preincubated for 10 mins followed by A23187 addition and measured after 10 mins by RP-HPLC and UV detection method; format: cell-based; settings: Neutrophil
T5 sequence (whole entry): T4 sequence (P09917 whole entry)

Leukotriene C4 synthase [5] = biological target: T3, Leukotriene C4 synthase; experiment: Inhibition of human recombinant LTC4S expressed in HEK293 cell microsomal fraction preincubated for 10 mins followed by LTA4-methyl ester addition and measured after 10 mins by UPLC-MS/MS analysis; format: microsomes, Microsome
Neutrophil = experiment: Cytotoxicity against human neutrophils assessed as reduction in cell viability at 10 uM by LDH release assay; format: toxicity, cell-based

O=C(Nc1cc(-c2n[nH]c(=S)o2)ccc1F)c1ccc(OCc2ccccc2)cc1
IC50 (Prostaglandin E synthase): 2200 nM

S=c1[nH]nc(-c2ccc3[nH]c(Cc4ccc(OCc5ccccc5)cc4)nc3c2)o1
IC50 (Prostaglandin E synthase): 1600 nM

COc1cc(-c2nc3cc(-c4n[nH]c(=S)o4)ccc3[nH]2)ccc1OCc1ccccc1
inhibition [1]: Active

CC(C)c1ccc2c(c1)c(SC(C)(C)C)c(CC(C)(C)C(=O)O)n2Cc1ccc(Cl)cc1
IC50 (Leukotriene C4 synthase [2]): 3 µM

Cn1c(-c2ccc(OCc3ccccc3)cc2)nc2cc(-c3n[nH]c(=S)o3)ccc21
IC50 (Prostaglandin E synthase): 1060 nM

S=c1[nH]nc(-c2ccc3[nH]c(-c4ccc(Oc5ccccc5)cc4)nc3c2)o1
IC50 [3]: 3710 nM
inhibition [4]: Active
IC50 (Prostaglandin E synthase): 30 nM
IC50 (Leukotriene C4 synthase [5]): 2800 nM
Activity (Neutrophil): Non-Toxic

CC(c1ccc(Oc2ccccc2)cc1)c1nc2cc(-c3n[nH]c(=S)o3)ccc2[nH]1 (configuration not stated)
IC50 [3]: 2620 nM
inhibition [4]: Active
IC50 (Prostaglandin E synthase): 90 nM
IC50 (Leukotriene C4 synthase [5]): 400 nM
Activity (Neutrophil): Non-Toxic

O=C(Nc1cccc(-c2n[nH]c(=S)o2)c1)c1ccc(OCc2ccccc2)cc1
IC50 (Prostaglandin E synthase): 2500 nM

S=c1[nH]nc(-c2ccc3[nH]c(-c4ccc(OCc5ccccc5)cc4)nc3c2)o1
inhibition [1]: Active
IC50 [3]: 1260 nM
inhibition [4]: Active
IC50 (Prostaglandin E synthase): 30 nM
IC50 (Leukotriene C4 synthase [5]): 700 nM
Activity (Neutrophil): Non-Toxic
